Results taken from patent publication US12173309B2, “Compounds for increasing genome editing efficiency” (Max-Planck-Gesellschaft zur Förderung der Wissenschaften …, priority 2017, dated 2024).

What follows are compounds tested on primary Human Epidermal Keratinocytes (HEKa) (assay: PGE of HPRT with Cpf1 electroporation in non-pluripotent cells).
Type: cell-based
Description: Stem cell lines cultured for this project included human 409-B2 hiPSC ([…], Riken BioResource Center) and SC102A1 hiPSC ([…], BioCat GmbH), chimpanzee SandraA ciPSC (female, Mora-Bermúdez et al. 201637), as well as H9 hESC ([…], WiCell Research Institute, Ethics permit AZ 3.04.02/0118). Stem cell lines were grown on Matrigel Matrix (Corning, 35248), and mTeSR1 (StemCell Technologies, 05851) with mTeSR1 supplement (StemCell Technologies, 05852) was used as culture media. Non-pluripotent cell types and their respective media used were: HEK293 (ECACC, 85120602) with DMEM/F-12 (Gibco, 31330-038) supplemented with 10% FBS (SIGMA, F2442) and 1% NEAA (SIGMA, M7145); K562 (ECACC, 89121407) with IMDM (ThermoFisher, 12440053) supplemented with 10% FBS; CD4^+ T (HemaCare, PB04C-1) with RPMI 1640 (ThermoFisher, 11875-093) supplemented with 10% FBS, and activated with Dynabeads Human T-Activator (CD3/CD28) (ThermoFisher, 11131D); CD34^+ progenitor (HemaCare, M34C-1) with StemSpan SFEM (Stemcell, 09600) supplemented with StemSpan CC110 (StemCell, 02697); and HEKa (Gibco, C0055C) with Medium 154 (ThermoFisher, M154500) and Human Keratinocyte Growth Supplement (ThermoFisher, S0015). Cells were grown at 37° C. in a humidified incubator gassed with 5% CO2. Media was replaced every day for stem cells and every second day for non-pluripotent cell lines. Cell cultures were maintained 4-6 days until ˜80% confluency, and subcultured at a 1:6 to 1:10 dilution. Adherent cells were dissociated using EDTA (VWR, 437012C). The media was supplemented with 10 μM Rho-associated protein kinase (ROCK) inhibitor Y-27632 (Calbiochem, 688000) after cell splitting for one day in order to increase cell survival.
The recombinant A.s. Cpf1 and S.p. Cas9 protein and electroporation enhancer was ordered from IDT (Coralville, USA) and nucleofection was done using the manufacturer's protocol, except for the following alterations. […] Cells were counted using the Countess Automated Cell Counter (Invitrogen). […]

Structure (SMILES) | effect on PGE efficiency
NS(=O)(=O)OC[C@@H]1C[C@@H](n2ccc3c(N[C@H]4CCc5ccccc54)ncnc32)C[C@@H]1O [MLN4924, Pevonedistat] | disruptive effect
CC(C)C1=CC23CCC4C(C)(C(=O)O)CCCC4(C)C2CC1C(C(=O)O)C3C(=O)O (stereo not drawn) [NSC 15520, Fumaropimaric acid] | disruptive effect
O=c1cc(N2CCOCC2)oc2c1ccc1ccccc12 [NU7026] | disruptive effect
